This is an account of results in US11773078B2, “Furin inhibitors” (Glaxosmithkline Intellectual Property Development Limited, priority 2018, dated 2023).

The target of experiment [1] is T1, furin (endogenous protease) in U20S cells (Homo sapiens, UniProt P09958).
T1 construct: the endogenous protease cleaves GFP; endogenous in cells; host or cells: U2OS cells transduced with a BacMam reporter
Description: Furin cell-based assay (image-based, Golgi-targeted GFP with BMP10 furin/PCSK cleavage site).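 Note: Read-out is mean GFP fluorescence of Golgi puncta per cell by high-content imaging, retained when furin inhibited, over an eleven-point 0.00017–10 µM series, four-parameter fit.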 As to conditions: 24-hour incubation, read-out: furin golgi cell pXC50 (converted).

Experiment [2] addresses T2, Furin (108-574-Tev-Flag-His) enzyme (Homo sapiens, UniProt P09958).
T2 construct: Furin (108-574-Tev-Flag-His) enzyme was expressed and purified from CHO cells; TEV cleavage site (C); FLAG (C); His (C); made in house; host or cells: CHO cells
Description: Furin enzyme assay. The experiment is classed as biochemical. The gist of the method:
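Compounds ran as 11-point threefold dilutions (0.00017–10 μM final) against 40 pM furin, purified from CHO cells, for 2 h at room temperature. Buffer: 100 mM HEPES pH7.5 with 1 mM CaCl2 and 0.005% Triton X-100. Envision readout. Four-parameter curve gives pXC50.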

Molecules are shown by their SMILES. Structures can show the parent of a compound that is named as a salt.

T1 sequence (P09958 108-794): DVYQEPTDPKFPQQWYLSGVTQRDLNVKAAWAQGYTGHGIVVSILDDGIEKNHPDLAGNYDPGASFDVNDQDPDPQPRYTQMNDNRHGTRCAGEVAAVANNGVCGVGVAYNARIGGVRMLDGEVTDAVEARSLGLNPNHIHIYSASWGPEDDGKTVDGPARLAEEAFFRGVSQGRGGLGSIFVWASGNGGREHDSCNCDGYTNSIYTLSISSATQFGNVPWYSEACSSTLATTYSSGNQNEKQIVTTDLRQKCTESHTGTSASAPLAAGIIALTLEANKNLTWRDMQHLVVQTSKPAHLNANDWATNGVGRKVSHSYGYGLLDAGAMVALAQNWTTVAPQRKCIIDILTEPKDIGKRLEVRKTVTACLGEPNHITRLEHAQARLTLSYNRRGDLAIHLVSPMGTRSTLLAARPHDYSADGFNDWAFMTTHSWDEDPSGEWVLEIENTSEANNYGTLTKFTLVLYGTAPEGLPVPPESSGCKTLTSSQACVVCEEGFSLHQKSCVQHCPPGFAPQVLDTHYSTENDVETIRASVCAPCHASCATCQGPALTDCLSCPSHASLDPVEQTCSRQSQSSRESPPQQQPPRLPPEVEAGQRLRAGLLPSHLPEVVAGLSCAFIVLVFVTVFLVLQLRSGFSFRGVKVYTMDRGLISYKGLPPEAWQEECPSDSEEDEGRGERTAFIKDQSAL
T2 sequence (P09958 108-574): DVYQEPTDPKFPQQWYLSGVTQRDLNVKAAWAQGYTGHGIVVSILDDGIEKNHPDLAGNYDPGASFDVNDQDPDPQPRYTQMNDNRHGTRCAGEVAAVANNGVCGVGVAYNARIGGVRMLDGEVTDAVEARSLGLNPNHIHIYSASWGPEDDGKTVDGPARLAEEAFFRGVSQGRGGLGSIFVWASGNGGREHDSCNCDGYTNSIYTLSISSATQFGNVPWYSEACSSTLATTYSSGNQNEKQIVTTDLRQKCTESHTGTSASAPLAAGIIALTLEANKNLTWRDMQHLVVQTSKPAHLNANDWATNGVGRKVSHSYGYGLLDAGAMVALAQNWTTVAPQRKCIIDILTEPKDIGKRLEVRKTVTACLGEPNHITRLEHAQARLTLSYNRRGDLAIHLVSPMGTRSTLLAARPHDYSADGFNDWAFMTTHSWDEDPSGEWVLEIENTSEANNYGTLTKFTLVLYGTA

For the compound `CNC(=O)NCC1CCN(Cc2cc(Oc3cnc(N4CCN(CCC(N)=O)CC4)nc3)nc(-c3cc(Cl)cc(Cl)c3)c2)CC1` [Example 261, 3-(4-(5-((6-(3,5-dichlorophenyl)-4-((4-((3-methylureido)methyl)piperidin-1-yl)methyl)pyridin-2-yl)oxy)pyrimidin-2-yl)piperazin-1-yl)propanamide], in experiment [1], the EC50 is 10 nM. Besides, the “furin enzyme pIC50” value in experiment [2] was 9.2.

In the case of `CC(=O)NCC1CCN(Cc2cc(Oc3cnc(N4CCN(CCC(=O)O)CC4)nc3)nc(-c3cc(Cl)cc(C(F)F)c3)c2)CC1` [Example 61, 3-(4-(5-((4-((4-(acetamidomethyl)piperidin-1-yl)methyl)-6-(3-chloro-5-(difluoromethyl)phenyl)pyridin-2-yl)oxy)pyrimidin-2-yl)piperazin-1-yl)propanoic acid], the EC50 in experiment [1] is 158 nM. Further, in experiment [2], the “furin enzyme pIC50” value was 9.2.

For the compound `CN1CCCN(c2ncc(Oc3cc(CN4CCC(CC(=O)O)CC4)cc(-c4cc(F)cc(Cl)c4)n3)cn2)CC1` [Example 374, 2-(1-((2-(3-chloro-5-fluorophenyl)-6-((2-(4-methyl-1,4-diazepan-1-yl)pyrimidin-5-yl)oxy)pyridin-4-yl)methyl)piperidin-4-yl)acetic acid], the EC50 in experiment [1] was 158 nM. Moreover, the “furin enzyme pIC50” value in experiment [2] is on record as 7.9.

Consider `CC(=O)NCC1CCN(Cc2cc(Oc3ccc(N4CCN(C(=O)CCC(=O)O)CC4)nc3)nc(-c3cc(Cl)cc(Cl)c3)c2)CC1` [Example 33, 4-(4-(5-((4-((4-(Acetamidomethyl)piperidin-1-yl)methyl)-6-(3,5-dichlorophenyl)pyridin-2-yl)oxy)pyridin-2-yl)piperazin-1-yl)-4-oxobutanoic acid], for which the EC50 in experiment [1] was 39.8 nM. Moreover, in experiment [2], the “furin enzyme pIC50” value worked out at 8.5.

As for `O=C(O)CC1CCN(Cc2cc(Oc3cnc(N4CCN(C5CC5)CC4)nc3)nc(-c3cc(Cl)cc(Cl)c3)c2)CC1` [Example 233, 2-(1-((2-((2-(4-cyclopropylpiperazin-1-yl)pyrimidin-5-yl)oxy)-6-(3,5-dichlorophenyl)pyridin-4-yl)methyl)piperidin-4-yl)acetic acid], the EC50 in experiment [1] was 100 nM. In experiment [2], the “furin enzyme pIC50” value came out at 8.2.

Regarding `O=S(=O)(O)CCC1CCN(Cc2cc(Oc3ccc(N4CCNCC4)nc3)nc(-c3cc(Cl)cc(Cl)c3)c2)CC1` [Example 7, 2-(1-((2-(3,5-Dichlorophenyl)-6-((6-(piperazin-1-yl)pyridin-3-yl)oxy)pyridin-4-yl)methyl)piperidin-4-yl)ethanesulfonic acid, 4 hydrochloride], the EC50 in experiment [1] was 79.4 nM. Also, the “furin enzyme pIC50” value in experiment [2] was 9.2.

For the compound `CC(=O)NCC1CCN(Cc2cc(Oc3ccc(N4CC[N+](CCO)(CCO)CC4)nc3)nc(-c3cc(Cl)cc(Cl)c3)c2)CC1` [Example 179, 1-(4-(5-((4-((4-(Acetamidomethyl)piperidin-1-yl)methyl)-6-(3,5-dichlorophenyl)pyridin-2-yl)oxy)pyridin-2-yl)-1-(2-hydroxyethyl)piperazin-1-ium-1-yl)-2-hydroxyethan-1-ide], in experiment [1], the EC50 was 12.6 nM. In addition, in experiment [2], the “furin enzyme pIC50” value is 8.8.

For `CC(=O)NCC1CCN(Cc2cc(Oc3ccc(N4CC5CNCC5C4)nc3)nc(-c3cc(Cl)cc(Cl)c3)c2)CC1` (centres unmarked) [Example 194, N-((1-((2-(3,5-dichlorophenyl)-6-((6-(hexahydropyrrolo[3,4-c]pyrrol-2(1H)-yl)pyridin-3-yl)oxy)pyridin-4-yl)methyl)piperidin-4-yl)methyl)acetamide], in experiment [1], the EC50 is 3.16 nM. Besides, the “furin enzyme pIC50” value in experiment [2] is recorded as 9.1.

In the case of `CC(=O)NCC1CCN(Cc2cc(Oc3ccc(N4CCN(CCC(=O)O)CC4)nc3)nc(-c3cc(F)cc(Cl)c3)c2)CC1` [Example 115, 3-(4-(5-((4-((4-(Acetamidomethyl)piperidin-1-yl)methyl)-6-(3-chloro-5-fluorophenyl)pyridin-2-yl)oxy)pyridin-2-yl)piperazin-1-yl)propanoic acid], the EC50 in experiment [1] is 251 nM. Besides, the “furin enzyme pIC50” value in experiment [2] is 8.3.

With `CC(=O)NCC1CCN(Cc2cc(Oc3cnc(N4CCN(CCB(O)O)CC4)nc3)nc(-c3cc(Cl)cc(Cl)c3)c2)CC1` [Example 319, (2-(4-(5-((4-((4-(Acetamidomethyl)piperidin-1-yl)methyl)-6-(3,5-dichlorophenyl)pyridin-2-yl)oxy)pyrimidin-2-yl)piperazin-1-yl)ethyl)boronic acid, 4 hydrochloride], in experiment [1], the EC50 is 1 nM. Moreover, the “furin enzyme pIC50” value in experiment [2] was found to be 8.9.

Regarding `COC(=O)NCC1CCN(Cc2cc(Oc3cnc(N4CCN(C)CC4)cn3)nc(-c3cc(Cl)cc(Cl)c3)c2)CC1` [Example 395, methyl ((1-((2-(3,5-dichlorophenyl)-6-((5-(4-methylpiperazin-1-yl)pyrazin-2-yl)oxy)pyridin-4-yl)methyl)piperidin-4-yl)methyl)carbamate], in experiment [1], the EC50 was 31.6 nM. For the same compound, in experiment [2], the “furin enzyme pIC50” value is reported as 9.2.

For `NS(=O)(=O)CCCN1CCN(c2ccc(Oc3cc(CN4CCC(CC(=O)O)CC4)cc(-c4cc(Cl)cc(Cl)c4)n3)cn2)CC1` [Example 252, 2-(1-((2-(3,5-dichlorophenyl)-6-((6-(4-(3-sulfamoylpropyl)piperazin-1-yl)pyridin-3-yl)oxy)pyridin-4-yl)methyl)piperidin-4-yl)acetic acid], the EC50 in experiment [1] was 31.6 nM. Further, the “furin enzyme pIC50” value in experiment [2] came to 8.5.

As to `O=C(O)[C@H]1[C@@H]2CCN(Cc3cc(Oc4cnc(N5CCN6CCC5C6)nc4)nc(-c4cc(Cl)cc(Cl)c4)c3)CC[C@@H]21` (stereo partly drawn) [Example 337, (1R,7S,8r)-4-((2-((2-(1,4-diazabicyclo[3.2.1]octan-4-yl)pyrimidin-5-yl)oxy)-6-(3,5-dichlorophenyl)pyridin-4-yl)methyl)-4-azabicyclo[5.1.0]octane-8-carboxylic acid], in experiment [1], the EC50 is 7.94 nM. Further, the “furin enzyme pIC50” value in experiment [2] stood at 9.

Turning to `CC(=O)NCC1CCN(Cc2cc(Oc3ccc(N4CCN(CCC(=O)O)C(C)(C)C4)nc3)nc(-c3cc(Cl)cc(Cl)c3)c2)CC1` [Example 191, 3-(4-(5-((4-((4-(acetamidomethyl)piperidin-1-yl)methyl)-6-(3,5-dichlorophenyl)pyridin-2-yl)oxy)pyridin-2-yl)-2,2-dimethylpiperazin-1-yl)propanoic acid], in experiment [1], the EC50 is 39.8 nM. In addition, the “furin enzyme pIC50” value in experiment [2] was 9.8.

With `CN1CCCN(c2ncc(Oc3cc(CN4CCC(CB(O)O)CC4)cc(-c4cc(Cl)cc(Cl)c4)n3)cn2)CC1` [Example 322, ((1-((2-(3,5-dichlorophenyl)-6-((2-(4-methyl-1,4-diazepan-1-yl)pyrimidin-5-yl)oxy)pyridin-4-yl)methyl)piperidin-4-yl)methyl)boronic acid], the EC50 in experiment [1] is 6.31 nM. Further, the “furin enzyme pIC50” value in experiment [2] is recorded as 8.9.

For `NC(=O)OCCN1CCN(Cc2cc(Oc3cnc(N4CCN(CCC(=O)O)CC4)nc3)nc(-c3cc(Cl)cc(Cl)c3)c2)CC1` [Example 54, 3-(4-(5-((4-((4-(2-(Carbamoyloxy)ethyl)piperazin-1-yl)methyl)-6-(3,5-dichlorophenyl)pyridin-2-yl)oxy)pyrimidin-2-yl)piperazin-1-yl)propanoic acid, 5 hydrochloride], the EC50 in experiment [1] was 158 nM. For the same compound, the “furin enzyme pIC50” value in experiment [2] is reported as 8.2.

In the case of `CN1CCN(c2ncc(Oc3cc(CN4CCC(CB(O)O)CC4)cc(-c4cc(Cl)cc(Cl)c4)n3)cn2)CC1` [Example 318, ((1-((2-(3,5-Dichlorophenyl)-6-((2-(4-methylpiperazin-1-yl)pyrimidin-5-yl)oxy)pyridin-4-yl)methyl)piperidin-4-yl)methyl)boronic acid, 4 hydrochloride], the EC50 in experiment [1] was 10 nM. For the same compound, the “furin enzyme pIC50” value in experiment [2] was determined as 8.9.

For the compound `CC(=O)NCC1CCN(Cc2cc(Oc3cnc(N4CC5CCC(C4)N5CCC(=O)O)nc3)nc(-c3cc(Cl)cc(Cl)c3)c2)CC1` [Example 296, 3-(3-(5-((4-((4-(acetamidomethyl)piperidin-1-yl)methyl)-6-(3,5-dichlorophenyl)pyridin-2-yl)oxy)pyrimidin-2-yl)-3,8-diazabicyclo[3.2.1]octan-8-yl)propanoic acid], the EC50 in experiment [1] was 10 nM. The “furin enzyme pIC50” value in experiment [2] was 10.6.

As for `CNC(=O)OCC1CCN(Cc2cc(Oc3cnc(N4CCN(C[C@@H](C)O)CC4)nc3)nc(-c3cc(Cl)cc(Cl)c3)c2)CC1` [Example 308, (R)-(1-((2-(3,5-dichlorophenyl)-6-((2-(4-(2-hydroxypropyl)piperazin-1-yl)pyrimidin-5-yl)oxy)pyridin-4-yl)methyl)piperidin-4-yl)methyl methylcarbamate], the EC50 in experiment [1] was 12.6 nM. The “furin enzyme pIC50” value in experiment [2] is 9.3.

As to `CN1C[C@@H]2C[C@H]1CN2c1ccc(Oc2cc(CN3CCC(CC(=O)O)CC3)cc(-c3cc(Cl)cc(Cl)c3)n2)cn1` [Example 203, 2-(1-((2-(3,5-dichlorophenyl)-6-((6-((1S,4S)-5-methyl-2,5-diazabicyclo[2.2.1]heptan-2-yl)pyridin-3-yl)oxy)pyridin-4-yl)methyl)piperidin-4-yl)acetic acid], the EC50 in experiment [1] is 12.6 nM. The “furin enzyme pIC50” value in experiment [2] came out at 8.7.

Take `CC(O)CC1CCN(Cc2cc(Oc3cnc(N4CCN(C)CC4)nc3)nc(-c3cc(Cl)cc(Cl)c3)c2)CC1` (centres unmarked) [Example 138, 1-(1-((2-(3,5-dichlorophenyl)-6-((2-(4-methylpiperazin-1-yl)pyrimidin-5-yl)oxy)pyridin-4-yl)methyl)piperidin-4-yl)propan-2-ol]: the EC50 in experiment [1] was 7.94 nM. Also, the “furin enzyme pIC50” value in experiment [2] was found to be 9.1.

As for `CN1CCN(c2ccc(Oc3cc(CN4CCC(CC(=O)O)CC4)cc(-c4cc(Cl)cc(Cl)c4)n3)cc2)CC1` [Example 150, 2-(1-((2-(3,5-dichlorophenyl)-6-(4-(4-methylpiperazin-1-yl)phenoxy)pyridin-4-yl)methyl)piperidin-4-yl)acetic acid], the EC50 in experiment [1] is 63.1 nM. Moreover, in experiment [2], the “furin enzyme pIC50” value amounted to 8.2.
